Test results reported in paper PMC4402028 (Journal of Clinical Pharmacology, 2015).
Several values for one entry are separate records, joined by “and”; a condition that tells them apart may be missing. Identical values can stand only once. Like-named read-outs stand apart in the source and are kept apart here.

How the values were obtained:
[1] = assay type: in vivo, human; conditions: for AUC(0–inf), Ratio (%) of Geometric LS Means: all profiles with estimable elimination rates; for CL renal: plasma and urine, CLr; for Vd/F: Vz/F
Safety and tolerability = assay type: in vivo, human
[2] = Allometric PK scaling of CLTOT to human
[3] = Semiphysiological integrated PK/ADME model; design: species or system human; conditions: for clearance: oral
[4] = humans; single 300 mg radiolabeled dose; ref data on file at Furiex; cited from earlier work
[5] = in vitro or in vivo, except slow formation of a glucuronide found in human urine after 1,000 mg oral dose; ref data on file at Furiex; cited from earlier work
[6] = ref data on file at Furiex; cited from earlier work
Caco2 cell-line = conditions: ref data on file at Furiex; cited from earlier work
OAT1 [7] = conditions: in vitro; ref data on file at Furiex; cited from earlier work
OCT1 [8] = conditions: in vitro; ref data on file at Furiex; cited from earlier work
OCT2 [9] = conditions: in vitro; ref data on file at Furiex; cited from earlier work
OATP1B3 [10] = conditions: in vitro; ref data on file at Furiex; cited from earlier work
P-gp = conditions: in vitro; ref data on file at Furiex; cited from earlier work
BCRP [11] = conditions: in vitro; ref data on file at Furiex; cited from earlier work
MRP2 [12] = conditions: in vitro; ref data on file at Furiex; cited from earlier work
BCRP [13] = conditions: in vitro; ref data on file at Furiex; cited from earlier work; remark: listed apart in the source
BSEP = conditions: in vitro; ref data on file at Furiex; cited from earlier work
MRP2 [14] = conditions: in vitro; ref data on file at Furiex; cited from earlier work; remark: listed apart in the source
OCT1 [15] = conditions: in vitro; ref data on file at Furiex; cited from earlier work; remark: listed apart in the source
OCT2 [16] = conditions: in vitro; ref data on file at Furiex; cited from earlier work; remark: listed apart in the source
OAT1 [17] = conditions: in vitro; ref data on file at Furiex; cited from earlier work; remark: listed apart in the source
OAT3 = conditions: in vitro; ref data on file at Furiex; cited from earlier work
OATP1B3 [18] = conditions: in vitro; ref data on file at Furiex; cited from earlier work; remark: listed apart in the source
CYP-450s = conditions: in vitro; ref data on file at Furiex; cited from earlier work
[19] = Rat; IV 10 mg/kg; ref Furiex Studies DD7393, FK10138, FK10141, and FK10142; cited from earlier work
[20] = Cynos; IV 10 mg/kg; ref Furiex Studies DD7393, FK10138, FK10141, and FK10142; cited from earlier work
[21] = Rhesus; IV 3.2 mg/kg; ref Furiex Studies DD7393, FK10138, FK10141, and FK10142; cited from earlier work
[22] = Dog; IV 2 mg/kg; ref Furiex Studies DD7393, FK10138, FK10141, and FK10142; cited from earlier work
[23] = plasma protein binding; model input, source not stated; cited from earlier work
MRP2 [24] = conditions: read-out: Ki for MRP2; cited from earlier work
[25] = both, human, plasma, oral, eluxadoline 100 mg plus cyclosporine 600 mg, arithmetic mean (CV), n = 19
[26] = both, human, plasma, oral, eluxadoline 100 mg plus probenecid 500 mg, arithmetic mean (CV), n = 20
[27] = coadministered with probenecid vs eluxadoline alone
[28] = human, reference case without inhibitor, estimated
[29] = in the presence of cyclosporine

## COc1ccc(CN(C(=O)[C@@H](N)Cc2c(C)cc(C(N)=O)cc2C)[C@@H](C)c2ncc(-c3ccccc3)[nH]2)cc1C(=O)O [eluxadoline]
[1]; B/A: with cyclosporine 600 mg vs eluxadoline alone
  Cmax, Ratio (%) of Geometric LS Means: 6.18%
[1]; B/A: with cyclosporine vs alone
  AUC(0–inf), Ratio (%) of Geometric LS Means: 4.25%
[1]; C/A: with probenecid 500 mg vs eluxadoline alone
  Cmax, Ratio (%) of Geometric LS Means: 1.31%
[1]; C/A: with probenecid vs alone
  AUC(0–inf), Ratio (%) of Geometric LS Means: 1.48%
[1]; both, human, oral, eluxadoline 100 mg plus cyclosporine 600 mg, arithmetic mean (CV)
  CL renal: 96.7 mL/min
[1]; both, human, oral, eluxadoline 100 mg plus probenecid 500 mg, arithmetic mean (CV)
  CL renal: 61.7 mL/min
[1]; both, human, plasma, oral, 100 mg
  Tmax: 2.1 h
[1]; both, human, plasma, oral, 100 mg, Geometric LS Means, Treatment A, all profiles with estimable elimination rates (N 20)
  AUC(0-inf): 14.7 ng·h/mL
[1]; both, human, plasma, oral, 100 mg, Geometric LS Means, Treatment A, only subjects with estimable elimination rates for all 3 treatments (N 7)
  AUC(0-inf): 15.7 ng·h/mL
[1]; both, human, plasma, oral, Geometric LS Means, Treatment B (+ cyclosporine 600 mg), all profiles with estimable elimination rates (N 19)
  AUC(0-inf): 62.6 ng·h/mL
[1]; both, human, plasma, oral, Geometric LS Means, Treatment B (+ cyclosporine 600 mg), only subjects with estimable elimination rates for all 3 treatments (N 7)
  AUC(0-inf): 79.9 ng·h/mL
[1]; both, human, plasma, oral, Geometric LS Means, Treatment C (+ probenecid 500 mg), all profiles with estimable elimination rates (N 20)
  AUC(0-inf): 21.8 ng·h/mL
[1]; both, human, plasma, oral, Geometric LS Means, Treatment C (+ probenecid 500 mg), only subjects with estimable elimination rates for all 3 treatments (N 7)
  AUC(0-inf): 20.4 ng·h/mL
[1]; [25]
  AUC(0-inf): 75.3 ng·h/mL
  Vd/F: 20700 L
[1]; [26]
  AUC(0-inf): 23 ng·h/mL
  Vd/F: 37100 L
[1]; both, human, plasma, oral, eluxadoline 100 mg plus cyclosporine 600 mg, arithmetic mean (CV), N = 30
  Cmax: 20.9 ng/mL
[1]; both, human, plasma, oral, eluxadoline 100 mg plus probenecid 500 mg, arithmetic mean (CV), N = 29
  Cmax: 3.6 ng/mL
[1]; both, human, plasma, oral, t1/2, eluxadoline 100 mg plus cyclosporine 600 mg, arithmetic mean (CV), n = 19
  half-life: 7.4 h
[1]; both, human, plasma, oral, t1/2, eluxadoline 100 mg plus probenecid 500 mg, arithmetic mean (CV), n = 20
  half-life: 5.1 h
[1]; by cyclosporine
  effect on renal clearance (CLren) of eluxadoline: little effect
[1]; by probenecid
  reduction of renal clearance (CLren): ~50%
[1]; coadministered with cyclosporine vs alone, subjects with estimable elimination rates for all 3 treatments
  increase in AUC(0–inf), geometric mean ratio: 5.1 fold
[1]; coadministered with cyclosporine vs eluxadoline alone
  increase in peak exposure (Cmax): 6.2 fold
[1]; [27]
  increase in peak exposure (Cmax): 1.3 fold and 1.31 fold
  increase in systemic/total exposure [AUC(0–inf)]: 1.30 fold and 1.3 fold
[1]; eluxadoline 100 mg alone
  CLren, mean (CV%): 116 (20%) mL/min and 116 mL/min
[1]; eluxadoline 100 mg alone, arithmetic mean (CV)
  %Fe(0–72), cumulative urinary excretion over 72 hours as fraction of the dose: 0.12%
[1]; eluxadoline 100 mg alone, arithmetic mean (CV), listed as Eluxadoline
  %Fe(0–72), cumulative urinary excretion over 72 hours as fraction of the dose: 0.12 (52) %
[1]; eluxadoline 100 mg alone, arithmetic mean (CV), n = 20
  CL/F: 7550 (54) L/h
[1]; eluxadoline 100 mg plus cyclosporine 600 mg, arithmetic mean (CV)
  %Fe(0–72), cumulative urinary excretion over 72 hours as fraction of the dose: 0.46%
[1]; eluxadoline 100 mg plus cyclosporine 600 mg, arithmetic mean (CV), n = 19
  CL/F: 1943 (69) L/h
[1]; eluxadoline 100 mg plus probenecid 500 mg, arithmetic mean (CV)
  %Fe(0–72), cumulative urinary excretion over 72 hours as fraction of the dose: 0.08%
[1]; eluxadoline 100 mg plus probenecid 500 mg, arithmetic mean (CV), listed as Eluxadoline
  %Fe(0–72), cumulative urinary excretion over 72 hours as fraction of the dose: 0.08 (39) %
[1]; eluxadoline 100 mg plus probenecid 500 mg, arithmetic mean (CV), n = 20
  CL/F: 5645 (53) L/h
[1]; eluxadoline 100 mg plus probenecid 500 mg, median (minimum, maximum)
  Tmax: 2.5 (0.25, 6.0) hours
[1]; in the presence of cyclosporine 600 mg
  CLren, mean (CV%): 97 (19%) mL/min and 97 mL/min
[1]; in the presence of probenecid 500 mg
  CLren, mean (CV%): 62 (25%) mL/min and 62 mL/min
[1]; with or without cyclosporine and probenecid
  fraction of the eluxadoline dose excreted in urine unchanged (%Fe): less than 1%
Safety and tolerability; after eluxadoline alone
  nausea: not reported
Safety and tolerability; after eluxadoline alone (1 subject)
  subjects reporting gastrointestinal AEs: 3%
Safety and tolerability; after eluxadoline alone (2 subjects)
  subjects reporting AEs: 7%
Safety and tolerability; after eluxadoline combined with cyclosporine (3 subjects)
  subjects reporting nausea: 10.0%
Safety and tolerability; after eluxadoline combined with probenecid (2 subjects)
  subjects reporting gastrointestinal AEs: 7%
Safety and tolerability; after eluxadoline in combination with cyclosporine (4 subjects)
  subjects reporting gastrointestinal AEs: 13%
Safety and tolerability; after eluxadoline in combination with cyclosporine (6 subjects)
  subjects reporting AEs: 20%
Safety and tolerability; after eluxadoline with probenecid (1 subject)
  subjects reporting nausea: 3%
[2]
  clearance: 12.6 mL/min/kg and 949 mL/min
[3]; eluxadoline alone
  PK-ADME-model-predicted AUC(0–inf): 17.8 ng·h/mL
[3]; human
  renal excretion as share of overall elimination: 12%
[3]; human, plasma, 200 mg, biliary clearance (CLbil), without inhibitor, estimated
  clearance: 832 mL/min
[3]; human, plasma, 200 mg, net tubular secretion clearance CLTS, without inhibitor, estimated
  clearance: 459 mL/min
[3]; human, plasma, po, 200 mg
  bioavailability: 1.02%
[3]; [28]
  FGI (extent of GI absorption/GI permeability): 2.3%
  hepatic extraction ratio (ERhep): 55.8%
[3]; human, without inhibitor, estimated
  intrinsic biliary CLint: 9,370 mL/min
[3]; [29]
  CLbil: 296 mL/min
  Foral: 1.82%
  reduction of CLTS: 24%
  reduction of biliary CLint: 71%
[3]; in the presence of probenecid
  CLbil: 750 mL/min
  Foral: 1.15%
  reduction of CLTS: 52%
  reduction of biliary CLint: 21%
[3]; with cyclosporine
  PK-ADME-model-predicted AUC(0–inf): 78.3 ng·h/mL
  model-predicted CLren: 92 mL/min
[3]; with probenecid
  PK-ADME-model-predicted AUC(0–inf): 23.6 ng·h/mL
  model-predicted CLren: 62 mL/min
[4]
  circulating metabolites: no circulating metabolites were detected
[5]
  hepatic drug metabolism: absence of hepatic drug metabolism
[6]
  GI solubility: high
Caco2 cell-line
  Caco2 cell-line permeability: poor
OAT1 [7]
  transport by OAT1: not to be transported
OCT1 [8]
  transport by OCT1: not to be transported
OCT2 [9]
  transport by OCT2: not to be transported
OATP1B3 [10]
  transport by OATP1B3: not to be transported
P-gp
  transport by P-gp: not to be transported
BCRP [11]
  transport by BCRP: not to be transported
MRP2 [12]
  MRP2-dependent vesicular accumulation: substrate of MRP2
BCRP [13]
  inhibition of BCRP-mediated transport of probe substrates: did not inhibit
BSEP
  inhibition of BSEP-mediated transport of probe substrates: did not inhibit
MRP2 [14]
  inhibition of MRP2-mediated transport of probe substrates: did not inhibit
OCT1 [15]
  inhibition of OCT1-mediated transport of probe substrates: did not inhibit
OCT2 [16]
  inhibition of OCT2-mediated transport of probe substrates: did not inhibit
OAT1 [17]
  inhibition of OAT1-mediated transport of probe substrates: did not inhibit
OAT3
  inhibition of OAT3-mediated transport of probe substrates: did not inhibit
OATP1B3 [18]
  inhibition of OATP1B3-mediated transport of probe substrates: did not inhibit
CYP-450s
  inhibition or induction of CYP-450s: no inhibition or induction
[19]
  CLtot: 44.4 mL/min/kg
  t½: 0.8 h
[20]
  CLtot: 18.54 mL/min/kg
  t½: 3.73 h
[21]
  CLtot: 28.5 mL/min/kg
  t½: 0.65 h
[22]
  CLtot: 19.92 mL/min/kg
  t½: 0.75 h
[23]
  fu (unbound fraction of drug in plasma): 19%

## CCCN(CCC)S(=O)(=O)c1ccc(C(=O)O)cc1 [probenecid]
MRP2 [24]
  Ki: 44.6 µM
